Assay results taken from paper PMC7731314, “Tropinone-Derived Alkaloids as Potent Anticancer Agents: Synthesis, Tyrosinase Inhibition, Mechanism of Action, DFT Calculation, and Molecular Docking Studies” (International Journal of Molecular Sciences, 2020).
Like-named read-outs stand apart in the source and are kept apart here.

Tests used:
[1] = test system: human lung carcinoma (A549) cell line; assay: MTT cell proliferation assay, A549; assay type: cell-based; conditions: antiproliferative, 96 h, read-out: IC50 ± SD A549
Method: (§1) The influence of the tested compounds on the proliferation of RPMI 8226 and A549 cells was estimated with the MTT assay as described previously. Briefly, 1 × 10^4 cells/mL (RPMI 8226) or 0.2 × 10^4 (A549) cells per well were seeded into 96-well plates and cultured (in growth medium containing 10% FBS) with different concentrations of each compound ranging from 3.125 to 100 μM. The control cells were treated with the vehicle DMSO (0.1%).

[2] = test system: human breast adenocarcinoma (MDA-MB-231) cell line; assay: MTT cell proliferation assay, MDA-MB-231; assay type: cell-based; conditions: read-out: IC50 ± SD MDA-MB-231
From the text: (§2) The influence of the tested compounds on the proliferation of melanoma B16F10 and breast MDA-MB-231 cells was estimated with the MTT assay as described previously. The cells counted using an automated cell counter (Countess® II FL, Invitrogen by Thermo Fisher Scientific Inc., Waltham, MA USA) and plated in 96-well plates (Nunc Edge 2F, Thermo Fisher Scientific Inc.) at a density of 0.1 × 10^4 and 0.2 × 10^4 per well, respectively. A total of twenty-four hours later, drugs were applied with final concentration: 5, 0.5, 0.05, and 0.005 μg/mL, and after an additional seventy-two hours MTT staining was performed as follows: twenty microliters of 5 mg/mL MTT solution and was added to each well of 96-well plate incubated for 2 h. Subsequently, the medium was removed and crystals of formazan were solubilized in pure isopropanol. Absorbance readout was conducted immediately using plate reader Multiskan Spectrum at 570 nm (Thermo Electron Corporation, Waltham, MA, USA). The background optical density was measured in the wells filled with culture medium, without the cells. The biological evaluation was performed as three independent experiments. The IC50 values were calculated using ED50plus v 1.0 freeware software and the mean response and standard deviation were calculated using Excel software. All of the chemicals were obtained from Sigma-Aldrich.

[3] = test system: human multiple myeloma (RPMI 8226) cell line; assay: MTT cell proliferation assay, RPMI 8226; assay type: cell-based; conditions: antiproliferative, 96 h, read-out: IC50 ± SD RPMI 8226
Method: as §1

mushroom tyrosinase = mushroom tyrosinase (Agaricus bisporus, UniProt C7FF04); assay: Kinetic analysis of the inhibition of tyrosinase (Lineweaver-Burk); assay type: biochemical; conditions: tyrosinase-catalyzed oxidation of L-DOPA
Chain of mushroom tyrosinase (C7FF04 1-392): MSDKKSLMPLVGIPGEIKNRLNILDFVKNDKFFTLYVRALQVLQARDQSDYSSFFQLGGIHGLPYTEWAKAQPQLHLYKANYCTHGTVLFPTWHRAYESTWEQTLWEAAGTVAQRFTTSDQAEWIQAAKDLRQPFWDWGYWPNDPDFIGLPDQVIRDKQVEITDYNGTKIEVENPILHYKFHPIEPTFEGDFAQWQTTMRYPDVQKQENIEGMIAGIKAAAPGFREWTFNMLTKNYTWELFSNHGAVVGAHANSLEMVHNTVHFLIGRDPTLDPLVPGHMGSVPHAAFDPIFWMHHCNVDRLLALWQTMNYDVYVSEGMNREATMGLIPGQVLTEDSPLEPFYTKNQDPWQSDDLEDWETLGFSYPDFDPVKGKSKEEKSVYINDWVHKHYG
Method: To understand the mechanism of mushroom tyrosinase inhibition by new compounds 3a–3h, enzyme inhibition kinetic studies were performed. The mechanism of tyrosinase inhibition was determined using Lineweaver–Burk plot, which is a useful graphical method for analysis of the Michaelis–Menten equations used to determine the inhibition constant […].
A series of experiments were performed to determine the inhibition kinetics of compounds by following the already reported method. The inhibitor concentrations for compounds were 50 and 100 µM. Substrate L-DOPA concentration was between 100 and 250 µM in all kinetic studies. Maximal initial velocity was determined from the initial linear portion of absorbance up to ten minutes after addition of enzyme. The inhibition type of the enzyme, Michaelis constant (KM) and maximal velocity (Vmax) were determined by Lineweaver–Burk plots of inverse of velocities (1/V) versus inverse of substrate concentration 1/[L-DOPA] mM^−1.

[4] = test system: mouse skin melanoma (B16-F10) cell line; assay: MTT cell proliferation assay, B16-F10; assay type: cell-based; conditions: read-out: IC50 ± SD B16-F10
From the text: as §2

in vitro [5] = conditions: human
Method: (§3) The human normal skin fibroblasts, i.e., the HSF cell line, were a laboratory strain obtained with the outgrowth technique from skin explants from young volunteers (with subjects’ written informed consent). […] The CCD18-Co cells were grown in Eagle Medium (Sigma-Aldrich, St. Louis, MO, USA) supplemented with 2 mM L-glutamine (Sigma-Aldrich) and 1mM sodium pyruvate (Sigma-Aldrich, St. Louis, MO, USA), 10% FBS, (without antibiotics). HSF were cultured in a 1:1 mixture of Dulbecco’s modified Eagle Medium and Eagle Medium (Sigma-Aldrich) containing 10% FBS, 100 units/mL of penicillin, and 100 mg/mL of streptomycin. […] All cell lines were cultured in a humidified 5% CO2 atmosphere at a temperature of 37 °C. A stock solution of each tested compound was made in dimethylsulfoxide (DMSO; Sigma-Aldrich) and stored at 4 °C until use. The drug was diluted in an appropriate culture medium immediately before use.
(§4) The influence of the tested compounds on normal cell viability was estimated with the MTT assay. The CCD-18Co and HSF cells were seeded in 96-well microplates at a density of 1 × 10^5 cells/mL in complete growth medium. The next day, the medium was replaced with a fresh one containing 2% FBS (growth restriction) and the cells were exposed to each tested compound (3.156–100 µM) to study the acute toxicity in vitro. After 24-h incubation, the medium was removed and the cells were incubated for 3 h with an MTT solution; next, formazan crystals were solubilized overnight by adding SDS buffer and absorbance was determined at a wavelength of 570 nm using an EL800 Microplate Reader (BioTek Instruments, Winooski, VT, USA). The absorbance of the control wells was taken as 100% and the cell viability was expressed as a percentage of the control. CC50 values, defined as concentrations of the compounds necessary to reduce cell viability by 50%, were calculated from nonlinear regression (log(inhibitor) vs. normalized response-variable slope) using GraphPad Prism 5.0.

[6] = test system: human normal colon fibroblasts (CCD-18Co)
Method: as §3, §4

in vitro [7] = assay: in vitro
Method: as §3, §4

[8] = test system: human normal skin fibroblasts (HSF)
Method: as §3, §4

[9] = MDA-MB-231, antiproliferative, MTT, 72 h
[10] = B16-F10, antiproliferative, MTT, 72 h

Compound `CN1C2CCC1CC(=NNc1nc(-c3ccc(C#N)cc3)cs1)C2` [Compound 3c, 4-[2-[2-(8-Methyl-8-azabicyclo[3.2.1]oct-3-ylidene)hydrazinyl]-1,3-thiazol-4-yl]benzonitrile] has an IC50 [1] of 74.9 ± 7.65 µM, an IC50 [2, 9] of 2.7 ± 0.14 µM and an IC50 [3] of 31.7 ± 2.77 µM. For the same compound, the melting point was 90 to 92 °C, the “Inhibitory Mechanism” value (mushroom tyrosinase) was “mixed” and the IC50 [4, 10] was 1.52 ± 0.13 µM.
With `O=C(O)CCCc1ccc(N(CCCl)CCCl)cc1` [Chlorambucil, reference compound] the IC50 ([2]; MDA-MB-231, 72 h) was 4.71 ± 0.5 µM and the IC50 ([4]; B16-F10, 72 h) was 2.92 ± 0.1 µM.
In the case of `CN1C2CCC1CC(=NNc1nc(-c3ccc(N)cc3)cs1)C2` [Compound 3e, 4-[2-[2-(8-Methyl-8-azabicyclo[3.2.1]oct-3-ylidene)hydrazinyl]-1,3-thiazol-4-yl]aniline], the CC50 at 24 h (in vitro [5]) is reported as > 100 µM, the IC50 [1] is reported as 263 ± 105 µM and the IC50 [2, 9] is reported as 2.81 ± 0.12 µM. The IC50 [3] was 67 ± 7.14 µM, the “CC50 ± SD CCD-18Co” value [6] was “no toxicity” and the CC50 at 24 h (in vitro [7]) was > 100 µM. For the same compound, the “CC50 ± SD HSF” value [8] was “no toxicity”, the melting point was 85 to 87 °C and the “Inhibitory Mechanism” value (mushroom tyrosinase) was “mixed”. For the same compound, the IC50 [4, 10] was 2.68 ± 0.4 µM.
`CN1C2CCC1CC(=NNc1nc(-c3ccc([N+](=O)[O-])cc3)cs1)C2` [Compound 3d, 4-(4-Nitrophenyl)-2-(2-(8-methyl-8-azabicyclo[3.2.1]octan-3-ylidene)hydrazinyl)thiazole] gave an IC50 [1] of 31 ± 4.62 µM, an IC50 [2, 9] of 2.44 ± 0.14 µM and an IC50 [3] of 17.9 ± 1.78 µM. The melting point was 99 to 101 °C, the “Inhibitory Mechanism” value (mushroom tyrosinase) was “mixed” and the IC50 [4, 10] was 1.91 ± 0.04 µM.
In the case of `CC(=O)Nc1ccc(-c2csc(NN=C3CC4CCC(C3)N4C)n2)cc1` [Compound 3h, N-(4-[2-[2-(8-Methyl-8-azabicyclo[3.2.1]oct-3-ylidene)hydrazinyl]-1,3-thiazol-4-yl]phenyl)acetamide], the CC50 at 24 h (in vitro [5]) is reported as > 100 µM, the IC50 [1] is reported as 189 ± 33 µM and the IC50 [2, 9] is reported as 2.9 ± 0.25 µM. The IC50 [3] was 108 ± 4.8 µM, the “CC50 ± SD CCD-18Co” value [6] was “no toxicity” and the CC50 at 24 h (in vitro [7]) was > 100 µM. For the same compound, the “CC50 ± SD HSF” value [8] was “no toxicity”, the melting point was 97 to 99 °C and the “Inhibitory Mechanism” value (mushroom tyrosinase) was “mixed”. It also gave an IC50 [4, 10] of 3.03 ± 0.18 µM.
`COc1ccc(-c2csc(NN=C3CC4CCC(C3)N4C)n2)cc1` [Compound 3b, 4-(4-Methoxyphenyl)-2-(2-(8-methyl-8-azabicyclo[3.2.1]octan-3-ylidene)hydrazinyl)thiazole] gave an IC50 [1] of 133 ± 25.1 µM, an IC50 [2, 9] of 2.53 ± 0.07 µM and an IC50 [3] of 42.2 ± 4.55 µM. For the same compound, the melting point was 91 to 93 °C, the “Inhibitory Mechanism” value (mushroom tyrosinase) was “mixed” and the IC50 [4, 10] was 2.2 ± 0.04 µM.
In the case of `CN1C2CCC1CC(=NNc1nc(-c3ccc(NS(C)(=O)=O)cc3)cs1)C2` [Compound 3f, N-(4-[2-[2-(8-Methyl-8-azabicyclo[3.2.1]oct-3-ylidene)hydrazinyl]-1,3-thiazol-4-yl]phenyl)methane-sulfonamide], the CC50 at 24 h (in vitro [5]) is reported as > 100 µM, the IC50 [1] is reported as 117 ± 22.8 µM and the IC50 [2, 9] is reported as 2.48 ± 0.08 µM. For the same compound, the IC50 [3] was 107 ± 7.22 µM, the “CC50 ± SD CCD-18Co” value [6] was “no toxicity” and the CC50 at 24 h (in vitro [7]) was 98.7 ± 4.16 µM. For the same compound, the “CC50 ± SD HSF” value [8] was “weak”, the melting point was 98 to 100 °C and the “Inhibitory Mechanism” value (mushroom tyrosinase) was “mixed”. It also gave an IC50 [4, 10] of 2.14 ± 0.23 µM.
Compound `CN1C2CCC1CC(=NNc1nc(-c3cc4ccccc4oc3=O)cs1)C2` [Compound 3g, 3-[2-[2-(8-Methyl-8-azabicyclo[3.2.1]oct-3-ylidene)hydrazinyl]-1,3-thiazol-4-yl]-2H-chromen-2-one] has a CC50 at 24 h (in vitro [5]) of 42.6 ± 5.89 µM, an IC50 [1] of 29.3 ± 3.98 µM and an IC50 [2, 9] of 2.83 ± 0.06 µM. It also gave an IC50 [3] of 23.2 ± 4.52 µM, a CC50 at 24 h (in vitro [7]) of 35.3 ± 5.52 µM and a melting point of 110 to 113 °C. For the same compound, the “Inhibitory Mechanism” value (mushroom tyrosinase) was “mixed” and the IC50 [4, 10] was 3 ± 0.26 µM.
